Test results as given in patent US20110190321A1, “[…] FOR EGFR INHIBITOR TREATMENT” (priority 2007, published 2011).

Legend:
[1] = test system: NSCLC patients for whom standard therapy for advanced disease has failed; conditions: single agent versus placebo, BR.21; cited from earlier work
[2] = test system: patients with advanced NSCLC following failure of at least one prior chemotherapy regimen; assay: Open-label predictive marker identification Phase II study of Tarceva monotherapy 150 mg/day; RECIST response and survival; type: in vivo, human; conditions: 102 patients with evaluable microarray data
Method: The selection of this dose was based on pharmacokinetic parameters, as well as the safety and tolerability profile of this dose observed in Phase I, II and III trials in heavily pre-treated patients with advanced cancer. Drug levels seen in the plasma of patients with cancer receiving the 150 mg/day dose were consistently above the average plasma concentration of 500 ng/ml targeted for clinical efficacy.
This was an open-label, predictive marker identification Phase II study. The study was conducted in approximately 26 sites in about 12 countries. 264 patients with advanced NSCLC following failure of at least one prior chemotherapy regimen were enrolled over a 12 month period. […] Dose reductions were permitted based on tolerability to drug therapy. Clinical and laboratory parameters were assessed to evaluate disease control and toxicity. Treatment continued until disease progression, unacceptable toxicity or death. The study design is depicted in FIG. 1.
The RECIST (Uni-dimensional Tumour Measurement) criteria were used to evaluate response. These criteria can be found under the following link: […]
A regular status check every 3 months was performed either by a patient's visit to the clinic or by telephone. All deaths were recorded. […]

[3] = patients with cancer, 150 mg/day dose; 500 ng/ml is the average concentration targeted for clinical efficacy; cited from earlier work

## C#Cc1cccc(Nc2ncnc3cc(OCCOC)c(OCCOC)cc23)c1 [Erlotinib, erlotinib]
[1]
  survival of NSCLC patients: significantly prolongs and improves the survival
[2]
  Best Response PD: (48.0%)
  Best Response PR: (5.9%)
[3]
  Drug levels in plasma: > 500 ng/mL
